Source: patent US20050026959A1, “Ethanol solvate of (-)-cis-2-(2-chloropheny)-5,7-dihydroxy-8-[4R-(3S-hydroxy-1-methyl)piperidinyl]-4H-1benzopyran-4-one” (Aventis Pharma Deutschland GmbH, priority 2000, published 2005)

What was measured:
[1] = Hygroscopicity of the solid form; format: physicochemical
Excerpt: Form II is hygroscopic. It can be used in water free form or in a form with a certain water content. The use in a form, which is essentially free from water is preferred.

[2] = system: cyclin dependent kinases (CDKs) including CDK1, CDK2, CDK4, CDK6 and CDK7; details: cdk1/cyclin B; cdk2/cyclin A; cdk2/cyclin E; cdk4/cyclinD; cdk6/cyclin D; cdk7/cyclin H; Int. J. Oncology 9: 1143-1168 (1996); cited from earlier work

With `CN1CC[C@H](c2c(O)cc(O)c3c(=O)cc(-c4ccccc4Cl)oc23)[C@H](O)C1.Cl` (relative stereo) [Form II, (−)-cis-2-(2-chlorophenyl)-5,7-dihydroxy-8-[4R-(3S-hydroxy-1-methyl)piperidinyl]-4H-1-benzopyran-4-one hydrochloride] the hygroscopicity [1] was “hygroscopic”.
For `CN1CC[C@H](c2c(O)cc(O)c3c(=O)cc(-c4ccccc4Cl)oc23)[C@H](O)C1` [Flavopiridol, (−)-cis-2-(2-chlorophenyl)-5,7-dihydroxy-8-[4R-(3S-hydroxyl-1-methyl)piperidinyl]-4H-1-benzopyran-4-one], the “inhibition of cyclin dependent kinases” value [2] is given as “strong inhibitor”.
